From patent US10336732B2, “1-heterocyclyl isochromanyl compounds and analogs for treating CNS disorders” (Sunovion Pharmaceuticals Inc., priority 2015, dated 2019)

Test system: mice
Assay: Neuropharmacological assay (SmartCube), behavioral signature of compound-treated mice
Format: in vivo
Details: i.p. 15 min before behavioral test, most efficacious dose(s) of 3 doses
How it was run: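 Mice received compound i.p. in NMP/PEG/propylene glycol vehicle at 3 doses, 15 min before testing. Video-captured behavior was algorithmically compared with a reference-drug signature database.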

Compound | AD: ADHD (probability that behavioral signature matches class) | AG: analgesic (probability that behavioral signature matches class) | AX: anxiolytic (probability that behavioral signature matches class) | CE: cognitive enhancer (probability that behavioral signature matches class) | DP: anti-depressant (probability that behavioral signature matches class) | HA: hallucinogen (probability that behavioral signature matches class) | MS: mood stabilizer (probability that behavioral signature matches class) | PS: anti-psychotic (probability that behavioral signature matches class) | SD: sedative hypnotic (probability that behavioral signature matches class) | UN: uncharacterized CNS activity (probability that behavioral signature matches class) | XG: anxiogenic (probability that behavioral signature matches class)
c1ccc2c(c1)CCCO[C@@H]2[C@@H]1CCCN1 [Compound I-97, (S)-2-((S)-1,3,4,5-tetrahydrobenzo[c]oxepin-1-yl)pyrrolidine] | + (LOQ ≤ + <5%) | +++ (25% ≤ +++ <50%) | ++ (5% ≤ ++ <25%) | ++ (5% ≤ ++ <25%) | ++ (5% ≤ ++ <25%) | + (LOQ ≤ + <5%) | ++ (5% ≤ ++ <25%) | +++ (25% ≤ +++ <50%) | ++ (5% ≤ ++ <25%) | + (LOQ ≤ + <5%) | + (LOQ ≤ + <5%)
CC1(C)Cc2ccccc2[C@H]([C@@H]2CCCN2)O1 [Compound I-66, (S)-2-((R)-3,3-dimethylisochroman-1-yl)pyrrolidine] | + (LOQ ≤ + <5%) | ++ (5% ≤ ++ <25%) | ++ (5% ≤ ++ <25%) | ++ (5% ≤ ++ <25%) | ++ (5% ≤ ++ <25%) | + (LOQ ≤ + <5%) | + (LOQ ≤ + <5%) | +++ (25% ≤ +++ <50%) | + (LOQ ≤ + <5%) | ++ (5% ≤ ++ <25%) | + (LOQ ≤ + <5%)
c1ccc2c(c1)CCO[C@@H]2[C@H]1CCCN1 [Compound I-20, (R)-2-((S)-isochroman-1-yl)pyrrolidine] | + (LOQ ≤ + <5%) | ++ (5% ≤ ++ <25%) | ++ (5% ≤ ++ <25%) | ++ (5% ≤ ++ <25%) | ++ (5% ≤ ++ <25%) | + (LOQ ≤ + <5%) | ++ (5% ≤ ++ <25%) | ++++ (50% ≤ ++++) | ++ (5% ≤ ++ <25%) | +++ (25% ≤ +++ <50%) | + (LOQ ≤ + <5%)
CC1(C)CN[C@H]([C@H]2OCCc3ccccc32)C1 [Compound I-60, (S)-2-((S)-isochroman-1-yl)-4,4-dimethylpyrrolidine] | + (LOQ ≤ + <5%) | ++ (5% ≤ ++ <25%) | ++ (5% ≤ ++ <25%) | ++ (5% ≤ ++ <25%) | ++ (5% ≤ ++ <25%) | + (LOQ ≤ + <5%) | + (LOQ ≤ + <5%) | +++ (25% ≤ +++ <50%) | ++ (5% ≤ ++ <25%) | ++ (5% ≤ ++ <25%) | + (LOQ ≤ + <5%)
Fc1ccc2c(c1)CCCO[C@@H]2[C@H]1CCCN1 [Compound I-112, (R)-2-((S)-7-fluoro-1,3,4,5-tetrahydrobenzo[c]oxepin-1-yl)pyrrolidine] | + (LOQ ≤ + <5%) | + (LOQ ≤ + <5%) | ++ (5% ≤ ++ <25%) | ++ (5% ≤ ++ <25%) | ++ (5% ≤ ++ <25%) | + (LOQ ≤ + <5%) | + (LOQ ≤ + <5%) | +++ (25% ≤ +++ <50%) | + (LOQ ≤ + <5%) | + (LOQ ≤ + <5%) | + (LOQ ≤ + <5%)
C[C@@]1([C@@H]2CCCN2)OCc2cc(F)ccc21 [Compound I-122, (S)-2-((R)-5-fluoro-1-methyl-1,3-dihydroisobenzofuran-1-yl)pyrrolidine] | + (LOQ ≤ + <5%) | + (LOQ ≤ + <5%) | ++ (5% ≤ ++ <25%) | + (LOQ ≤ + <5%) | ++ (5% ≤ ++ <25%) | + (LOQ ≤ + <5%) | + (LOQ ≤ + <5%) | + (LOQ ≤ + <5%) | + (LOQ ≤ + <5%) | + (LOQ ≤ + <5%) | + (LOQ ≤ + <5%)
Cc1cccc2c1[C@H]([C@@H]1CCCN1)OCC2 [Compound I-22, (S)-2-((R)-8-methylisochroman-1-yl)pyrrolidine] | + (LOQ ≤ + <5%) | ++ (5% ≤ ++ <25%) | ++ (5% ≤ ++ <25%) | ++ (5% ≤ ++ <25%) | +++ (25% ≤ +++ <50%) | + (LOQ ≤ + <5%) | + (LOQ ≤ + <5%) | +++ (25% ≤ +++ <50%) | + (LOQ ≤ + <5%) | + (LOQ ≤ + <5%) | + (LOQ ≤ + <5%)
c1ccc(-c2ccc3c(c2)CCO[C@H]3[C@@H]2CCCN2)nc1 [Compound I-58, 2-((R)-1-((S)-pyrrolidin-2-yl)isochroman-6-yl)pyridine] | + (LOQ ≤ + <5%) | ++ (5% ≤ ++ <25%) | ++ (5% ≤ ++ <25%) | + (LOQ ≤ + <5%) | +++ (25% ≤ +++ <50%) | + (LOQ ≤ + <5%) | ++ (5% ≤ ++ <25%) | ++ (5% ≤ ++ <25%) | + (LOQ ≤ + <5%) | + (LOQ ≤ + <5%) | + (LOQ ≤ + <5%)
